Test results: US20230099803A1, “OXAZOLIDINONE FOR TREATMENT OF INFECTIONS WITH MYCOBACTERIUM TUBERCULOSIS” (priority 2017, published 2023)

Test system: Mycobacterium tuberculosis
Type: cell-based
Conditions: 5x and 10x MIC90 of T145, 5 weeks of incubation

SMILES: CC(=O)NC[C@H]1CN(c2ccc3c(c2)Oc2ccccc2O3)C(=O)O1 [T145, N-(((S)-3-(dibenzo[b,e][1,4]dioxin-7-yl)-2-oxooxazolidin-5-yl)methyl)acetamide]
- frequency of spontaneous mutants that confer resistance: 4.0 × 10^-8
